For this assay, the target named is Human PDE4 (PDE4B2 truncated) (Homo sapiens, UniProt Q07343). The assay can be described thus: Measurement of Phosphodiesterase 4 (PDE4) inhibition, zinc and barium precipitation method with 3H-cAMP. The settings on record: PDE4B2 truncated catalytic domain, 0.3 pM enzyme, 20 min pre-incubation, 30° C. for 6 minutes. It counts as biochemical. As to the method:
Human PDE4 enzymatic activity was assayed using the zinc and barium precipitation method of Saldou, N. et at (1998: Cell Signal, vol 10, No. 6, pp 427-440). The assay was performed in 96-well v-bottom plates (BrandPlates, Wertheim, Germany). PDE4B2 truncated is the catalytic domain including the UCR2 and a portion of the UCR1 domain of PDE4B2 (23.4 mg/mL) from Proteros Biostructures. Final concentration of enzyme in the assay was 0.3 pM. Stocks of the tested compounds were prepared in 100% DMSO at a concentration of 40 mM. The 105-μL reaction volume consisted of 45 mM Tris-HCl, pH 7.5, 12.5 mM MgSO4, 1.5 μM […] (Sigma, St Louis, Mo.) supplemented with 0.15 μM ^3H-cAMP (Perkin Elmer, Waltham, Mass.). Compounds were pre-incubated with enzyme at room temperature for 20 min prior to initiating the reaction by adding substrate (cAMP supplemented with ^3H-cAMP). After incubation at 30° C. for 6 minutes, the reaction was stopped by the addition of 50 μL fresh made 21.5 mM ZnSO4.7H2O (Alfa Aesar, Ward Hill, Mass.) containing 5 mM AMP as a co-precipitant. Total AMP was precipitated by the addition of 50 μL 17.5 mM Ba(OH)2, prepared fresh daily in autoclaved MilliQ water. 180 uL of well-mixed precipitate was transferred and collected by filtration (Millipore Multiscreen; MSFBN6B50). The plates were washed five times with cold wash solution (1 mM NaOH, 100 mM NaCl) and dried for 30 min to 1 hour at 65±10° C. or overnight at room temperature. The bottoms of plates were sealed with clear tapes (Millipore Co-operation, Billerica, Mass.) and 50±10 μL of scintillation cocktail (Perkin Elmer Waltham, Mass.) was added. The plates were top sealed and radioactivity was measured with scintillation counter.

Chain of Human PDE4 (PDE4B2 truncated) (Q07343 212-659 limits assumed): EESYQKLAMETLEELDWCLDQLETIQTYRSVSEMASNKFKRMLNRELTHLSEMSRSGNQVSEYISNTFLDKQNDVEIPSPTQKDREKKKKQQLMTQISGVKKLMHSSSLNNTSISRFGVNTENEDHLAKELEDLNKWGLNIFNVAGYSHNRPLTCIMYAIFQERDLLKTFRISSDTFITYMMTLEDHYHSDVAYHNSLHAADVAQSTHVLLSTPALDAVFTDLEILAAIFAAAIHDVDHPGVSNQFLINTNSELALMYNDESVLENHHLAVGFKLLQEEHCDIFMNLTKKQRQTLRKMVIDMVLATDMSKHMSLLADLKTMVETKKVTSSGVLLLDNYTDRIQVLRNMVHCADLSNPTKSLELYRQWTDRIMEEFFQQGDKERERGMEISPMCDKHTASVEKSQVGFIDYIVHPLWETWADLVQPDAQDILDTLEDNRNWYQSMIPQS

For the compound `N#Cc1ccc(C(=O)c2ccc3c(c2)COB3O)cc1` [A, 4-(1-hydroxy-1,3-dihydrobenzo[c][1,2]oxaborole-5-carbonyl)benzonitrile], the half-maximal inhibitory concentration (IC50) (in general, the concentration needed to halve the response being measured) was 427 nM.

`N#Cc1ccc(C(O)c2ccc3c(c2)COB3O)cc1` (stereo not drawn) [B, 4-(hydroxy(1-hydroxy-1,3-dihydrobenzo[c][1,2]oxaborol-5-yl)methyl)benzonitrile] showed an IC50 of 3090 nM. Compared with the last compound, the IC50 is about 7.2-fold higher. As to `N#Cc1ccc([S+]([O-])c2ccc3c(c2)COB3O)cc1` (stereo not drawn) [D, 4-(1-hydroxy-1,3-dihydrobenzo[c][1,2]oxaborol-5-ylsulfinyl)benzonitrile], the IC50 was found to be 47 nM.
